Like-named read-outs stand apart in the source and are kept apart here.
Key:
[1] = test system: Leptosphaeria nodorum (LEPTNO); test: In vitro fungitoxicity of hydrazones with and without copper towards Leptosphaeria nodorum (Example 26); assay type: cell-based; details: 72 h at 25° C.; for inhibition of growth at 0.05 µg/mL: Parastagonospora nodorum, 72 h, copper-minus medium, read-out: LEPTNO % Inhn. Minus Copper Observed
[2] = test system: Phytophthora infestans; assay type: in vivo, Phytophthora infestans on tomato; details: applied 24 h before inoculation, assessed 7 days after inoculation
[3] = test compound Concn. 0.05 μg/mL
[4] = copper-plus medium (CuCl2 10 μM), test compound Concn. 0.05 μg/mL
[5] = hydrazone 50 ppm with 50 μM CuCl2.2H2O, tomato late blight
[6] = compound 0.05 μg/mL, copper-plus medium (CuCl2.2H2O)
[7] = hydrazone 50 ppm + 50 μM CuCl2.2H2O, tomato

| Structure (SMILES) | melting point | inhibition of growth at 0.05 µg/mL [1, 3] | LEPTNO % Inhn. Plus Copper Observed [1, 4] | TLB % Control [2, 5] | inhibition of growth at 0.05 µg/mL ([1]; compound 0.05 μg/mL) | LEPTNO % Inhn. Plus Copper Observed [1, 6] | TLB % Control [2, 7] |
| --- | --- | --- | --- | --- | --- | --- | --- |
| O=C(N/N=C/c1c(Cl)ccc(Cl)c1O)c1ccc([N+](=O)[O-])cc1 [Example 375] | 250 to 300 °C (dec.) | 7.2% | 98.2% | 90.0% | – | – | – |
| O=C(N/N=C/c1cc(C(F)(F)F)ccc1O)c1ccc([N+](=O)[O-])cc1 [Example 442] | 259 to 265 °C | 0% | 100.0% | 98.0% | – | – | – |
| O=C(N/N=C/c1cc(Cl)cc(Cl)c1O)c1ccc2ccccc2c1O [Example 488] | 276 to 278 °C | 20.1% | 92.6% | 72.0% | – | – | – |
| O=C(N/N=C/c1cc(C(F)(F)F)ccc1O)c1cccc([N+](=O)[O-])c1 [Example 441] | 218 to 220 °C | 0% | 100.0% | 96.0% | – | – | – |
| C/C(=N\NC(=O)c1ccccc1)c1cc(Br)ccc1O [Example 287] | 204 to 208 °C | – | – | – | 0% | 98.3% | 65.0% |
| O=C(N/N=C/c1ccc(Cl)cc1O)c1ccc([N+](=O)[O-])cc1 [Example 394] | 278 to 281 °C | 8% | 95.9% | 71.0% | – | – | – |
| COc1ccc(/C(C)=N/NC(=O)c2ccccc2Br)c(O)c1 [Example 476] | 205 to 206 °C | 0% | 93.9% | 69.0% | – | – | – |
| O=C(N/N=C/c1cc(Cl)cc(Br)c1O)c1cc(Cl)ccc1Cl [Example 196] | 169 to 173 °C | – | – | – | 4.4% | 97.7% | 94.5% |
| O=C(N/N=C/c1cc(Br)cc(F)c1O)c1ccccc1 [Example 410] | 211 to 212 °C | 1.9% | 97.6% | 95.0% | – | – | – |
| O=C(N/N=C/c1cc(Cl)cc(Cl)c1O)c1ccc(Cl)cc1O [Example 474] | 276 to 279 °C | 39.2% | 97.6% | 100.0% | – | – | – |
| O=C(N/N=C/c1cc(Cl)ccc1O)c1cccc([N+](=O)[O-])c1 [Example 10] | 224 to 227 °C | – | – | – | 6.9% | 97.2% | 96.0% |
| CC/C(=N\NC(=O)c1ccc(C)cc1C)c1ccccc1O [Example 30] | 159 to 160 °C | – | – | – | 0% | 97.0% | 40.7% |
| O=C(N/N=C(/c1ccccc1O)C(F)(F)F)c1ccccc1 [Example 591] | 208 to 210 °C | 0% | 9.9% | 11.0% | – | – | – |
| COc1ccc(/C(C)=N/NC(=O)c2ccccc2Cl)c(O)c1 [Example 284] | 174 to 175 °C | – | – | – | 0% | 97.1% | 74.0% |
| O=C(N/N=C/c1cc(C(F)(F)F)cc(Cl)c1O)c1ccc(F)cc1 [Example 324] | 200 to 202 °C | 2.3% | 96.3% | 98.0% | – | – | – |
| O=C(N/N=C/c1cccc(Cl)c1O)c1ccccc1O [Example 431] | 266 to 268 °C | 8.5% | 95.1% | 91.0% | – | – | – |
| Cc1ccc(C(=O)N/N=C/c2cc(C(F)(F)F)ccc2O)c(O)c1 [Example 445] | 264 to 271 °C | 13.2% | 100.0% | 90.0% | – | – | – |

| Structure (SMILES) | melting point | inhibition of growth at 0.05 µg/mL [1, 3] | LEPTNO % Inhn. Plus Copper Observed [1, 4] | TLB % Control [2, 5] | inhibition of growth at 0.05 µg/mL ([1]; compound 0.05 μg/mL) | LEPTNO % Inhn. Plus Copper Observed [1, 6] | TLB % Control [2, 7] |
| --- | --- | --- | --- | --- | --- | --- | --- |
| COc1cccc(/C(C)=N/NC(=O)c2ccc(Br)cc2)c1O [Example 465] | 176 to 177 °C | 1.7% | 96.5% | 93.0% | – | – | – |
| Cc1ccc(O)c(/C=N/NC(=O)c2ccccc2)c1 [Example 235] | 192 to 193 °C | – | – | – | 0% | 96.3% | 80.0% |
| Cc1ccc(C(=O)N/N=C/c2cc(C(F)(F)F)cc(C(F)(F)F)c2O)cc1 [Example 333] | 274 to 277 °C | 16.2% | 93.2% | 85.0% | – | – | – |
| O=C(N/N=C/c1ccc(Cl)c(Cl)c1O)c1cccc([N+](=O)[O-])c1 [Example 360] | 269 to 271 °C | 17.6% | 96.9% | 97.0% | – | – | – |
| COc1ccc(O)c(/C(C)=N/NC(=O)c2ccccc2C)c1 [Example 262] | 146 to 155 °C | – | – | – | 3.1% | 94.0% | 4.6% |
| O=C(N/N=C/c1cc(Cl)cc(Br)c1O)c1ccccc1C(F)(F)F [Example 418] | 266 to 274 °C | 0% | 97.3% | 93.0% | – | – | – |
| COc1cc(O)c(/C(C)=N/NC(=O)c2cccc(Cl)c2)c(OC)c1 [Example 567] | 206 to 215 °C | 2.5% | 42.3% | 14.0% | – | – | – |
| C/C(=N\NC(=O)c1cccc(Cl)c1)c1cc(Br)ccc1O [Example 292] | 235 to 240 °C | – | – | – | 5% | 97.6% | 21.0% |
| O=C(N/N=C/c1cc(Cl)cc(Cl)c1O)c1cc(Cl)cc(Cl)c1 [Example 79] | 248 to 249 °C | – | – | – | 12.2% | 97.1% | 84.4% |
| COc1ccc(C(=O)N/N=C(\C)c2ccc(OC)cc2O)cc1 [Example 482] | 226 to 227 °C | 0% | 96.4% | 66.0% | – | – | – |
| O=C(N/N=C(\CCc1ccccc1)c1ccccc1O)c1c(Cl)cccc1Cl [Example 45] | 204 to 208 °C | – | – | – | 0% | 96.2% | 49.0% |
| C/C(=N\NC(=O)c1ccc(C)cc1O)c1cc(Cl)cc(Cl)c1O [Example 491] | 320 to 323 °C | 25% | 97.5% | 75.0% | – | – | – |
| O=C(N/N=C/c1cc(Cl)cc(Br)c1O)c1ccc(F)cc1 [Example 415] | 200 to 211 °C | 2.9% | 96.1% | 100.0% | – | – | – |
| Cc1cc(C)cc(C(=O)N(/N=C/c2cc(Cl)cc(Cl)c2O)C(C)(C)C)c1 [Example 211] | 220 to 227 °C | – | – | – | 7% | 97.1% | 16.0% |
| C/C(=N\NC(=O)c1c(C)cccc1O)c1cc(Cl)cc(Cl)c1O [Example 479] | 245 °C | 0% | 97.5% | 97.0% | – | – | – |
| COc1ccc(C(=O)N/N=C(\C)c2ccc(OC)c(OC)c2O)cc1 [Example 558] | 230 to 232 °C | 3.8% | 95.7% | 80.0% | – | – | – |

— patent US20120010075A1 (priority 2009, published 2012)
